Molecular target: T1, KCNQ 2/3 channels (Homo sapiens, UniProt O43525+O43526)
T1 construct: expressed in transfected cells; host or cells: HEK293
Assay: KCNQ 2/3 channel activation, thallium flux FLIPR assay (BTC-AM dye)
Type: cell-based
Details: for Emax: HEK293, maximum response relative to the response of 10 μM retigabine (set at 100%), HEK293 KCNQ2/KCNQ3 cells, read-out: % MAX; for EC50: HEK293 cells stably expressing human KCNQ2 and KCNQ3 subunits, thallium-induced fluorescence, 4 min compound incubation
Experimental: The following example describes the assay that can be used to identify compounds that activate KCNQ 2/3 channels.
HEK293 cells stably expressing human KCNQ2 and KCNQ3 subunits were seeded in 96-well, black-walled, clear-bottomed, poly-D-lysine coated plates (BD Biosciences, Bedford, Mass.) at a density of 1×10^5 cells per well 24 hours before the assay. On the assay day, BTC-AM dye (Invitrogen, Carlsbad, Calif.) was loaded into the cells by replacing the cell culture medium with 55 μL/well of 3 μg/mL dye in DPBS. Dye loading was allowed to proceed for 2 hours at room temperature and then cells were washed twice with 50 μL/well of assay buffer (in mM: 10 HEPES pH 7.3, 5 glucose, 140 Na-gluconate, 2.5 K-gluconate, 3.6 Ca-gluconate, 2 MgSO4, 0.1 Ouabain) to remove unloaded dye. Cells were incubated in 50 μL of assay buffer before loading onto a FLIPR system (Molecular Devices, Sunnyvale, Calif.). Various concentrations of compounds to be assayed were added to the cells in 50 μL of assay buffer and incubated for 4 minutes. The fluorescence signal was initiated by adding 100 μL of assay buffer containing 6 mM TlNO3 and 10 mM K2SO4. Fluors were excited using the 488-nm line of an argon laser and emission was filtered using a 540±30 nm bandpass filter. Fluorescent signals were recorded for 3 minutes. Sums of the responses over basal responses were plotted versus concentrations of test compounds to obtain an EC50 value. The maximum response for each test compound was determined relative to the response produced by 10 μM retigabine. The maximum response of retigabine at 10 μM was set at 100%.

| SMILES | Emax [%] | EC50 [nM] |
| --- | --- | --- |
| N#Cc1cc(-c2nn(NC(=O)CC3CC4CCC3C4)c(=O)c3ccccc23)ccn1 (racemic) [Example 45, (±)-2-[(exo)-bicyclo[2.2.1]hept-2-yl]-N-[4-(2-cyanopyridin-4-yl)-1-oxophthalazin-2(1H)-yl]acetamide] | 146 | 381 |
| CC(C)(C)CC(=O)Nn1nc(N2CCOCC2)c2ccccc2c1=O [Example 135, 3,3-dimethyl-N-[4-(morpholin-4-yl)-1-oxophthalazin-2(1H)-yl]butanamide] | 75.3 | 11800 |
| O=C(Cc1cccc(Cl)c1)Nn1nc(N2CCOCC2)c2ccccc2c1=O [Example 152, 2-(3-chlorophenyl)-N-[4-(morpholin-4-yl)-1-oxophthalazin-2(1H)-yl]acetamide] | 80 | 5510 |
| CC(C)(C)Sc1nn(NC(=O)Cc2ccc(Cl)cc2)c(=O)c2ccccc12 [Example 198, N-[4-(tert-butylsulfanyl)-1-oxophthalazin-2(1H)-yl]-2-(4-chlorophenyl)acetamide] | 120 | 134 |
| O=C(Cc1ccc(Cl)cc1)Nn1nc(S(=O)(=O)Cc2ccccc2)c2ccccc2c1=O [Example 216, N-[4-(benzylsulfonyl)-1-oxophthalazin-2(1H)-yl]-2-(4-chlorophenyl)acetamide] | 67.1 | 1840 |
| CC1CN(c2nn(NC(=O)CC(C)(C)c3ccccc3)c(=O)c3ccccc23)CC(C)O1 (stereo not drawn) [Example 61, N-[4-(2,6-dimethylmorpholin-4-yl)-1-oxophthalazin-2(1H)-yl]-3-methyl-3-phenylbutanamide] | 123 | 228 |
| C[C@@H]1CN(c2nn(NC(=O)Cc3cc(F)cc(F)c3)c(=O)c3ccccc23)C[C@H](C)O1 [Example 88, 2-(3,5-difluorophenyl)-N-{4-[(cis)-2,6-dimethylmorpholin-4-yl]-1-oxophthalazin-2(1H)-yl}acetamide] | 107 | 998 |
| O=C(Cc1ccc(Cl)cc1)Nn1nc(CNC(=O)OCC(F)(F)F)c2ccccc2c1=O [Example 129, 2,2,2-trifluoroethyl[(3-{[(4-chlorophenyl)acetyl]amino}-4-oxo-3,4-dihydrophthalazin-1-yl)methyl]carbamate] | 33.7 | 1280 |
| CC(C)(C)OC(=O)Nc1ccc(S(=O)(=O)c2nn(NC(=O)Cc3ccc(Cl)cc3)c(=O)c3ccccc23)cc1 [Example 106, tert-butyl{4-[(3-{[(4-chlorophenyl)acetyl]amino}-4-oxo-3,4-dihydrophthalazin-1-yl)sulfonyl]phenyl}carbamate] | 46.2 | 2010 |
| O=C(Cc1ccc(Cl)cc1)Nn1nc(Sc2ccncc2)c2ccccc2c1=O [Example 191, 2-(4-chlorophenyl)-N-[1-oxo-4-(pyridin-4-ylsulfanyl)phthalazin-2(1H)-yl]acetamide] | 78.5 | 1320 |
| NCc1nn(NC(=O)Cc2ccc(Cl)cc2)c(=O)c2ccccc12 [Example 42, N-[4-(aminomethyl)-1-oxophthalazin-2(1H)-yl]-2-(4-chlorophenyl)acetamide] | 8.66 | – |
| O=C(CC1CC2CCC1C2)Nn1nc(-c2ccc(Cl)nc2)c2ccccc2c1=O (racemic) [Example 4, (±)-2-[(exo)-bicyclo[2.2.1]hept-2-yl]-N-[4-(6-chloropyridin-3-yl)-1-oxophthalazin-2(1H)-yl]acetamide] | 133 | 60.6 |
| O=C(CC1CC2CCC1C2)Nn1nc(S(=O)(=O)Cc2ccccc2)c2ccccc2c1=O (racemic) [Example 217, (±)-N-[4-(benzylsulfonyl)-1-oxophthalazin-2(1H)-yl]-2-[(exo)-bicyclo[2.2.1]hept-2-yl]acetamide] | 147 | 74.8 |
| O=C(C[C@@H]1C[C@@H]2C=C[C@H]1C2)Nn1nc(-c2cccs2)c2ccccc2c1=O [Example 13, 2-[(1S,2S,4S)-bicyclo[2.2.1]hept-5-en-2-yl]-N-[1-oxo-4-(thiophen-2-yl)phthalazin-2(1H)-yl]acetamide] | 138 | 131 |
| O=C(Cc1cc(F)ccc1F)Nn1nc(N2CCOCC2)c2ccccc2c1=O [Example 176, 2-(2,5-difluorophenyl)-N-[4-(morpholin-4-yl)-1-oxophthalazin-2(1H)-yl]acetamide] | 18 | – |
| CC(C)(CC(=O)Nn1nc(-c2ccnc(Cl)c2)c2ccccc2c1=O)c1ccccc1 [Example 48, N-[4-(2-chloropyridin-4-yl)-1-oxophthalazin-2(1H)-yl]-3-methyl-3-phenylbutanamide] | 133 | 389 |

| SMILES | Emax [%] | EC50 [nM] |
| --- | --- | --- |
| Cc1cc(C)c(CC(=O)Nn2nc(N3CCOCC3)c3ccccc3c2=O)c(C)c1 [Example 168, N-[4-(morpholin-4-yl)-1-oxophthalazin-2(1H)-yl]-2-(2,4,6-trimethylphenyl)acetamide] | 1.91 | – |
| O=C(CC1CC2CCC1C2)Nn1nc(Sc2ccc(Br)cc2)c2ccccc2c1=O (racemic) [Example 200, (±)-2-[(exo)-bicyclo[2.2.1]hept-2-yl]-N-{4-[(4-bromophenyl)sulfanyl]-1-oxophthalazin-2(1H)-yl}acetamide] | 180 | 23.2 |
| O=C(CC1CCOC1)Nn1nc(N2CCOCC2)c2ccccc2c1=O (stereo not drawn) [Example 66, N-[4-(morpholin-4-yl)-1-oxophthalazin-2(1H)-yl]-2-(tetrahydrofuran-3-yl)acetamide] | 3.89 | – |
| CS(=O)(=O)NCc1nn(NC(=O)Cc2ccc(Cl)cc2)c(=O)c2ccccc12 [Example 80, 2-(4-chlorophenyl)-N-[4-{[(methylsulfonyl)amino]methyl}-1-oxophthalazin-2(1H)-yl]acetamide] | 26.5 | – |
| O=C(Cc1ccc2c(c1)OCO2)Nn1nc(N2CCOCC2)c2ccccc2c1=O [Example 174, 2-(1,3-benzodioxol-5-yl)-N-[4-(morpholin-4-yl)-1-oxophthalazin-2(1H)-yl]acetamide] | 18.7 | – |
| O=C(CC1CC2CCC1C2)Nn1nc(N2CCCCC2)c2ccccc2c1=O (racemic) [Example 25, (±)-2-[(exo)-bicyclo[2.2.1]hept-2-yl]-N-[1-oxo-4-(piperidin-1-yl)phthalazin-2(1H)-yl]acetamide] | 144 | 25.3 |
| O=C(Cc1ccc(Cl)cc1)Nn1nc(SCc2ccccc2)c2ccccc2c1=O [Example 213, N-[4-(benzylsulfanyl)-1-oxophthalazin-2(1H)-yl]-2-(4-chlorophenyl)acetamide] | 123 | 30.3 |
| O=C(Cc1ccc(OCc2ccccc2)cc1)Nn1nc(N2CCOCC2)c2ccccc2c1=O [Example 164, 2-[4-(benzyloxy)phenyl]-N-[4-(morpholin-4-yl)-1-oxophthalazin-2(1H)-yl]acetamide] | 22 | – |
| O=C(Cc1ccc(Br)cc1)Nn1nc(N2CCOCC2)c2ccccc2c1=O [Example 155, 2-(4-bromophenyl)-N-[4-(morpholin-4-yl)-1-oxophthalazin-2(1H)-yl]acetamide] | 110 | 2560 |
| O=C(Cc1cccc([N+](=O)[O-])c1)Nn1nc(N2CCOCC2)c2ccccc2c1=O [Example 156, N-[4-(morpholin-4-yl)-1-oxophthalazin-2(1H)-yl]-2-(3-nitrophenyl)acetamide] | 32.8 | – |
| CN(C)C(=O)c1nn(NC(=O)CC2CC3CCC2C3)c(=O)c2ccccc12 (racemic) [Example 56, (±)-3-{[(exo)-bicyclo[2.2.1]hept-2-ylacetyl]amino}-N,N-dimethyl-4-oxo-3,4-dihydrophthalazine-1-carboxamide] | 84.9 | – |
| O=C(Cc1cccc(Cl)c1)Nn1nc(S(=O)(=O)c2ccccc2)c2ccccc2c1=O [Example 209, 2-(3-chlorophenyl)-N-[1-oxo-4-(phenylsulfonyl)phthalazin-2(1H)-yl]acetamide] | 80.9 | 77.4 |
| CC(C)(C)OC(=O)NCc1nn(NC(=O)C[C@@H]2CC[C@H]3C[C@@H]2C3(C)C)c(=O)c2ccccc12 [Example 119, tert-butyl{[3-({[(1S,2S,5S)-6,6-dimethylbicyclo[3.1.1]hept-2-yl]acetyl}amino)-4-oxo-3,4-dihydrophthalazin-1-yl]methyl}carbamate] | 33.9 | – |
| O=C(Cc1cccc(OC(F)(F)F)c1)Nn1nc(N2CCOCC2)c2ccccc2c1=O [Example 162, N-[4-(morpholin-4-yl)-1-oxophthalazin-2(1H)-yl]-2-[3-(trifluoromethoxy)phenyl]acetamide] | 87.4 | 1520 |
| O=C(Cc1cc(F)cc(F)c1)Nn1nc(-c2cccs2)c2ccccc2c1=O [Example 10, 2-(3,5-difluorophenyl)-N-[1-oxo-4-(thiophen-2-yl)phthalazin-2(1H)-yl]acetamide] | 137 | 161 |
| O=C(Cc1ccc(Cl)cc1)Nn1nc(CNS(=O)(=O)C(F)(F)F)c2ccccc2c1=O [Example 79, 2-(4-chlorophenyl)-N-[1-oxo-4-({[(trifluoromethyl)sulfonyl]amino}methyl)phthalazin-2(1H)-yl]acetamide] | 33.6 | 9080 |

Source: US8859549B2, “Potassium channel modulators” (AbbVie, Inc., priority 2011, dated 2014)
